In one data set the target is T1, HER-2 (Homo sapiens, UniProt P04626).
T1 construct: endogenous in cells; host or cells: Calu-3 (ATCC HTB-55) human non-small-cell lung cancer cells
The data set can be described thus: Inhibition of HER-2 phosphorylation in Calu-3 tumor cell line. The format is cell-based. As to conditions: compound concentration 1 μM; Calu-3 cells, 16 h incubation; pY 1248 in HER-2; relative to DMSO control; read-out: Percent inhibition of HER-2-phosphorylation. The method, then: Inhibition of HER-2 Phosphorylation in Calu-3 Tumor Cell Line
2×10^5 Calu-3 (ATTC HTB-55) cells per well were plated in a 12-well plate. After 4 days cells were starved for 16 h in Dulbecco's Modified Eagle Medium (DMEM)/0.5% Fetal Calf Serum (FCS)/1% Glutamine. During this 16 h period cells were incubated with a solution of the test compound in dimethylsulfoxide (DMSO), so that the final concentration of the compound is 1 μM and the final volume of DMSO is 0.5%. Afterwards cells were lysed in lyses buffer containing 1% octyl phenol ethoxylate (Triton®X-100), 10% Glycerol, 1 mM Ethylene glycol-bis(2-aminoethylether)-N,N,N′,N′-tetraacetic acid (EGTA), 1.5 mM MgCl2, 150 mM NaCl, 50 mM 4-(2-hydroxyethyl)-1-piperazineethanesulfonic acid (HEPES) buffer pH 7.5, 1 mM Phenylmethylsulfonyl fluoride (PMSF), 10 μg/mL Aprotinin (a naturally occurring protein that is obtained and purified from cow's lungs) and […] Orthovanadate (Na3VO4). Cell lysates were analyzed on a Sodium Dodecyl Sulfate Polyacrylamide Gel Electrophoresis (SDS PAGE) and after transfer to a nitrocellulose membrane detected with an antibody specifically recognizing the pY 1248 in HER-2 (phosphorylated tyrosine residue 1248 of human epidermal receptor 2). After incubation with an anti rabbit antibody coupled to POD (Peroxidase available from Biorad, Munich, Germany) signals were detected by chemiluminescence (ECL, Amersham). Inhibition of HER-2 phosphorylation is calculated as percentage of the control, which is treated with DMSO only. This percentage was calculated according to the following formula: Inhibition in %=100−(Phosphorylated-HER2-Signal of Test Sample*100/Phosphorylated-HER2-Signal DMSO-control).

T1 sequence (P04626 23-1255): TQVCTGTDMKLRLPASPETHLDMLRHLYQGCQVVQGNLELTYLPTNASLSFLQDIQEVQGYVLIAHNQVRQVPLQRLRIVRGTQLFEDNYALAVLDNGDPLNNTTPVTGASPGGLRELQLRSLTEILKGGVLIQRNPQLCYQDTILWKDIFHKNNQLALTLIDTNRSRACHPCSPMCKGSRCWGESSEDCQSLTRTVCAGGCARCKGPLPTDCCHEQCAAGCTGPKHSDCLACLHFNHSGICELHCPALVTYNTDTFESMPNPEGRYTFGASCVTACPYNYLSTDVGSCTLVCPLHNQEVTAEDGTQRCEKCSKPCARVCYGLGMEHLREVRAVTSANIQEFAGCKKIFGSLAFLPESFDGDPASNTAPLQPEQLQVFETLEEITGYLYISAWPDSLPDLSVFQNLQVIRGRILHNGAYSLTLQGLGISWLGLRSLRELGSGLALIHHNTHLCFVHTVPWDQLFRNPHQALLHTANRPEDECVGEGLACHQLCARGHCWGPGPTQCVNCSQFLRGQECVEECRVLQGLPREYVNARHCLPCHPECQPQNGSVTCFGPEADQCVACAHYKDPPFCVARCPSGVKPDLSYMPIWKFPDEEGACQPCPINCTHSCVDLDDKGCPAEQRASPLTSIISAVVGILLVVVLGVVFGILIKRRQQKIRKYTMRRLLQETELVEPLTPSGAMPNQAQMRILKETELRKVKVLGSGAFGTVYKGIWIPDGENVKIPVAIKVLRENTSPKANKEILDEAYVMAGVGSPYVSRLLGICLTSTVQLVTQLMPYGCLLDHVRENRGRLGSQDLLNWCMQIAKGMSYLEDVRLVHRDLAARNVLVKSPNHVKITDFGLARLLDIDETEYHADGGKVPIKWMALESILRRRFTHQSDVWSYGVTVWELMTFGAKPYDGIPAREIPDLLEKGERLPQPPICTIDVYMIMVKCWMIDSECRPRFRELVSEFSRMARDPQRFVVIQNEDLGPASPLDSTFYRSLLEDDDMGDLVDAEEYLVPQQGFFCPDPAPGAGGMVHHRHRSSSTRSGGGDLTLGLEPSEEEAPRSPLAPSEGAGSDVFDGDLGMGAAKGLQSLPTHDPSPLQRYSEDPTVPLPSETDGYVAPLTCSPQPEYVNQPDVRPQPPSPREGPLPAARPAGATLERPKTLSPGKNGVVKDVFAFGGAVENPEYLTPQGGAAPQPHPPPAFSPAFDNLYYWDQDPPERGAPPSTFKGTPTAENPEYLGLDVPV

Take `[O-][S+](CCn1ccnn1)Cc1ccc(OCc2coc(/C=C/c3ccc(OC(F)(F)F)cc3)n2)cc1` (centres unmarked) [Example 3, 1-[2-(4-{2-[2-(E)-(4-Trifluoromethoxy-phenyl)-vinyl]-oxazol-4-ylmethoxy}-phenylmethanesulfinyl)-ethyl]-1H-[1,2,3]triazole]: on HER-2, the inhibition at 1 µM is over 80%.
Still for that read-out and setting: under `O=S(=O)(CCn1ccnn1)Cc1ccc(OCc2coc(/C=C/c3ccc(C(F)(F)F)cc3F)n2)cc1` [Example 10, 1-[2-(4-{2-[2-(E)-(2-Fluoro-4-trifluoromethyl-phenyl)-vinyl]-oxazol-4-ylmethoxy}-phenylmethanesulfonyl)-ethyl]-1H-[1,2,3]triazole] stands 55 to 65%; under `Fc1cc(Cl)ccc1/C=C/c1nc(COc2ccc(CSCCn3ccnn3)cc2)co1` [Example 9, 1-[2-(4-{2-[2-(E)-(4-Chloro-2-fluoro-phenyl)-vinyl]-oxazol-4-ylmethoxy}-benzylsulfanyl)-ethyl]-1H-[1,2,3]triazole], 65 to 80%; under `FC(F)(F)Oc1ccc(C=Cc2nc(COc3ccc(CSCCn4ccnn4)cc3)co2)cc1` [Example 1, 1-[2-(4-{2-[2-(4-Trifluoromethoxy-phenyl)-vinyl]-oxazol-4-ylmethoxy}-benzylsulfanyl)-ethyl]-1H-[1,2,3]triazole], 65 to 80%.
On to `FC(F)(F)c1ccc(C=Cc2nc(COc3ccc(CSCCn4ccnn4)cc3)co2)cc1` [Example 6, 1-[2-(4-{2-[2-(4-Trifluoromethyl-phenyl)-vinyl]-oxazol-4-ylmethoxy}-benzylsulfanyl)-ethyl]-1H-[1,2,3]triazole], for which the inhibition at 1 µM at HER-2 was 55 to 65%.
Same read-out and setting: the value for `Fc1cc(C(F)(F)F)ccc1/C=C/c1nc(COc2ccc(CSCCn3ccnn3)cc2)co1` [Example 7, 1-[2-(4-{2-[2-(E)-(2-Fluoro-4-trifluoromethyl-phenyl)-vinyl]-oxazol-4-ylmethoxy}-benzylsulfanyl)-ethyl]-1H-[1,2,3]triazole] was over 80%; that for `[O-][S+](CCn1ccnn1)Cc1ccc(OCc2coc(/C=C/c3ccc(C(F)(F)F)cc3F)n2)cc1` (centres unmarked) [Example 11, 1-[2-(4-{2-[2-(E)-(2-Fluoro-4-trifluoromethyl-phenyl)-vinyl]-oxazol-4-ylmethoxy}-phenylmethanesulfinyl)-ethyl]-1H-[1,2,3]triazole] was over 80%.
In turn, `[O-][S+](CCn1ccnn1)Cc1ccc(OCc2coc(C=Cc3ccc(SC(F)(F)F)cc3)n2)cc1` (centres unmarked) [Example 4, 1-[2-(4-{2-[2-(4-Trifluoromethylsulfanyl-phenyl)-vinyl]-oxazol-4-ylmethoxy}-phenylmethanesulfinyl)-ethyl]-1H-[1,2,3]triazole] had a melting point of 182 to 184 °C.

As usually defined, the inhibition is how much of the control response was suppressed. The melting point is the temperature, or range, at which the solid turns liquid.
